Source: US11254686B1 (Corvus Pharmaceuticals, Inc., priority 2017, dated 2022)

Columns and labels:
adenosine A2B receptor = adenosine A2B receptor (Homo sapiens (Human), UniProt P29275); experiment: Adenosine receptor activity assay (Table 1), A2B activity; format: biochemical; details: for IC50: read-out: Ave A2B cAMP IC50
adenosine A2A receptor = adenosine A2A receptor (Homo sapiens (Human), UniProt P29274); experiment: Adenosine receptor activity assay (Table 1), A2A activity; format: biochemical; details: read-out: Ave A2A cAMP IC50
adenosine A2A receptor, sequence (P29274 whole entry): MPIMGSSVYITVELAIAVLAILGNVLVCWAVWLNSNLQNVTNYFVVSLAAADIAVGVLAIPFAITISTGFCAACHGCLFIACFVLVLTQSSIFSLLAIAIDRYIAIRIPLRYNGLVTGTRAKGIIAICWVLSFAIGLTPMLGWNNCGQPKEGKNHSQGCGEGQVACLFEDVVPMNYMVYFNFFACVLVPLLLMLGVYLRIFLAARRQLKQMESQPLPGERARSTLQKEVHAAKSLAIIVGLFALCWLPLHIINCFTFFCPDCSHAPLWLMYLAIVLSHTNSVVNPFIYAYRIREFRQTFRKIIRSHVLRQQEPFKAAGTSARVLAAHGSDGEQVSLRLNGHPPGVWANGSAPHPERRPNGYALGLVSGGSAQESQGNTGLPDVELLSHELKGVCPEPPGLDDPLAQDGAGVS

[1] = A2A activity to A2B activity (A2A/A2B)
[2] = A2A activity to the A2B activity, A2A/A2B

adenosine A2B receptor, sequence (P29275 whole entry): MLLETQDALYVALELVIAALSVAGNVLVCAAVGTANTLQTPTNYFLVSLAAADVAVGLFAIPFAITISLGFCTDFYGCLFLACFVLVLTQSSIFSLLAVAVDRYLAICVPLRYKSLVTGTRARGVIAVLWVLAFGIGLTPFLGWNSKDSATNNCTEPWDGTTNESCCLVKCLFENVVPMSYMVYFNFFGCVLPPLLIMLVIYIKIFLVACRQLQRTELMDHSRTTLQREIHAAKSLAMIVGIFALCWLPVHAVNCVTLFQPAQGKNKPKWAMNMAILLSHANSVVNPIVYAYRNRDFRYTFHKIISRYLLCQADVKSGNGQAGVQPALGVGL

SMILES	Ratio (adenosine A2B receptor; [1])	IC50 (adenosine A2B receptor)	IC50 (adenosine A2A receptor)	Ratio (adenosine A2B receptor; [2])
C[C@H](Nc1nc(C(=O)NCc2ccc(C(F)(F)F)nc2)c2sccc2n1)c1ccccn1 [Example Z79, (S)-2-((1-(Pyridin-2-yl)ethyl)amino)-N-((6-(trifluoromethyl)pyridin-3-yl)methyl)thieno[3,2-d]pyrimidine-4-carboxamide]	1.20	50 to 100 nM	100 to 500 nM	
O=C(c1nc(NCc2ccc(C(F)(F)F)nc2)nc2ccsc12)N1CC[C@H](O)C1 [Example Z75, (S)-(3-Hydroxypyrrolidin-1-yl)(2-(((6-(trifluoromethyl)pyridin-3-yl)methyl)amino)thieno[3,2-d]pyrimidin-4-yl)methanone]	1.00	> 500 nM	> 500 nM	
C[C@H](Nc1nc(C(=O)N2CCC[C@@H]2C)c2sccc2n1)c1cccnc1 [Example Z36, ((S)-2-Methylpyrrolidin-1-yl)(2-(((S)-1-(pyridin-3-yl)ethyl)amino)thieno[3,2-d]pyrimidin-4-yl)methanone]	1.55	100 to 500 nM	100 to 500 nM	
CN(C(=O)OC(C)(C)C)C1CN(C(=O)c2nc(NCc3cncc(F)c3)nc3ccsc23)C1 [Example Z235, tert-Butyl (1-(2-(((5-fluoropyridin-3-yl)methyl)amino)thieno[3,2-d]pyrimidine-4-carbonyl)azetidin-3-yl)(methyl)carbamate]	2.57	50 to 100 nM	100 to 500 nM	
O=C(c1nc(NCc2cncc(C(F)(F)F)c2)nc2ccsc12)N1CC[C@H](O)C1 [Example Z264, (S)-(3-Hydroxypyrrolidin-1-yl)(2-(((5-(trifluoromethyl)pyridin-3-yl)methyl)amino)thieno[3,2-d]pyrimidin-4-yl)methanone]	13.34	> 500 nM	> 500 nM	
O=C(c1nc(NCc2cccc(Cl)c2)nc2ccsc12)N1CC[C@@H](O)C1 [Example Z118, (R)-(2-((3-Chlorobenzyl)amino)thieno[3,2-d]pyrimidin-4-yl)(3-hydroxypyrrolidin-1-yl)methanone]	13.75	50 to 100 nM	> 500 nM	
C[C@H](Nc1nc(C(=O)N2CCN(C(=O)OC(C)(C)C)C2)c2sccc2n1)c1cccnc1 [Example Z140, tert-Butyl (S)-3-(2-((1-(pyridin-3-yl)ethyl)amino)thieno[3,2-d]pyrimidine-4-carbonyl)imidazolidine-1-carboxylate]	1.36	> 500 nM	> 500 nM	
COCC(Nc1nc(C(=O)N[C@H]2C[C@@H](O)C2)c2sccc2n1)c1cccnc1 (stereo partly shown) [Example Z218, N-((1s,3s)-3-Hydroxycyclobutyl)-2-((2-methoxy-1-(pyridin-3-yl)ethyl)amino)thieno[3,2-d]pyrimidine-4-carboxamide]	8.99	10 to 50 nM	100 to 500 nM	
C[C@H](Nc1nc(C(=O)NCC2CCN(Cc3ccccc3)CC2)c2sccc2n1)c1ccccn1 [Example Z151, (S)—N-((1-Benzylpiperidin-4-yl)methyl)-2-((1-(pyridin-2-yl)ethyl)amino)thieno[3,2-d]pyrimidine-4-carboxamide]		100 to 500 nM	100 to 500 nM	
O=C(NCc1cncc(F)c1)c1nc(NCc2cncc(F)c2)nc2ccsc12 [Example Z15, N-((5-Fluoropyridin-3-yl)methyl)-2-(((5-fluoropyridin-3-yl)methyl)amino)thieno[3,2-d]pyrimidine-4-carboxamide]	9.43	100 to 500 nM	> 500 nM	
COc1ccc(CNC(=O)c2nc(NCc3cccnc3C)nc3ccsc23)cn1 [Example Z94, N-((6-Methoxypyridin-3-yl)methyl)-2-(((2-methylpyridin-3-yl)methyl)amino)thieno[3,2-d]pyrimidine-4-carboxamide]	1.00	100 to 500 nM	100 to 500 nM	
C[C@H](Nc1nc(C(=O)NCCO)c2sccc2n1)c1ccccn1 [Example Z106, (S)—N-(2-hydroxyethyl)-2-((1-(pyridin-2-yl)ethyl)amino)thieno[3,2-d]pyrimidine-4-carboxamide]	2.95	10 to 50 nM	100 to 500 nM	

Continued, values first:

Ratio (adenosine A2B receptor; [1])	IC50 (adenosine A2B receptor)	IC50 (adenosine A2A receptor)	Ratio (adenosine A2B receptor; [2])	SMILES
	100 to 500 nM	> 500 nM	8.82	COC[C@@H]1CCN1C(=O)c1nc(N[C@@H](C)c2cncc(F)c2)nc2ccsc12 [Example Z567, (2-(((S)-1-(5-Fluoropyridin-3-yl)ethyl)amino)thieno[3,2-d]pyrimidin-4-yl)((S)-2-(methoxymethyl)azetidin-1-yl)methanone]
	100 to 500 nM	> 500 nM	37.04	C[C@H](Nc1nc(C(=O)NCCC2CCNC2)c2sccc2n1)c1ccccn1 (stereo partly drawn) [Example Z431, 2-(((S)-1-(Pyridin-2-yl)ethyl)amino)-N-(2-(pyrrolidin-3-yl)ethyl)thieno[3,2-d]pyrimidine-4-carboxamide]
	> 500 nM	> 500 nM	12.75	Cc1cc2nc(N[C@@H](C)c3cccnc3)nc(C(=O)NCC[C@@H]3CCNC3)c2s1 [Example Z500, 6-Methyl-2-(((S)-1-(pyridin-3-yl)ethyl)amino)-N-(2-((S)-pyrrolidin-3-yl)ethyl)thieno[3,2-d]pyrimidine-4-carboxamide]
	10 to 50 nM	100 to 500 nM	11.22	C[C@H](Nc1nc(C(=O)N2CCN(C(=O)N(C)C)C2)c2sccc2n1)c1cncc(F)c1 [Example Z590, (S)-3-(2-((1-(5-Fluoropyridin-3-yl)ethyl)amino)thieno[3,2-d]pyrimidine-4-carbonyl)-N,N-dimethylimidazolidine-1-carboxamide]
	50 to 100 nM	100 to 500 nM	3.05	C[C@H](Nc1nc(C(=O)N2CC(CN(C)C(=O)OC(C)(C)C)C2)c2sccc2n1)c1cncc(F)c1 [Example Z525, tert-Butyl (S)-((1-(2-((1-(5-Fluoropyridin-3-yl)ethyl)amino)thieno[3,2-d]pyrimidine-4-carbonyl)azetidin-3-yl)methyl)(methyl)carbamate]
	100 to 500 nM	> 500 nM	18.15	CC(C)C(=O)N1CCN(C(=O)c2nc(N[C@@H](C)c3cncc(F)c3)nc3ccsc23)C1 [Example Z564, (S)-1-(3-(2-((1-(5-Fluoropyridin-3-yl)ethyl)amino)thieno[3,2-d]pyrimidine-4-carbonyl)imidazolidin-1-yl)-2-methylpropan-1-one]
	10 to 50 nM	100 to 500 nM		CC(=O)N1CC(CCNC(=O)c2nc(N[C@@H](C)c3cncc(F)c3)nc3ccsc23)C1 [Example Z539, (S)—N-(2-(1-Acetylazetidin-3-yl)ethyl)-2-((1-(5-fluoropyridin-3-yl)ethyl)amino)thieno[3,2-d]pyrimidine-4-carboxamide]
	100 to 500 nM	100 to 500 nM	0.87	C[C@H](Nc1nc(C(=O)NCCNC(=O)C(C)(C)C)c2sccc2n1)c1cncc(F)c1 [Example Z537, (S)-2-((1-(5-Fluoropyridin-3-yl)ethyl)amino)-N-(2-pivalamidoethyl)thieno[3,2-d]pyrimidine-4-carboxamide]
	10 to 50 nM	> 500 nM	18.01	Cc1cc2nc(N[C@@H](C)c3cccnc3)nc(C(=O)N[C@H]3C[C@@H](O)C3)c2s1 [Example Z503, N-((1s,3R)-3-hydroxycyclobutyl)-6-methyl-2-(((S)-1-(pyridin-3-yl)ethyl)amino)thieno[3,2-d]pyrimidine-4-carboxamide]
	50 to 100 nM	> 500 nM	10.58	COC1(C)CN(C(=O)c2nc(N[C@@H](C)c3ccccn3)nc3ccsc23)C1 [Example Z486, (S)-(3-Methoxy-3-methylazetidin-1-yl)(2-((1-(pyridin-2-yl)ethyl)amino)thieno[3,2-d]pyrimidin-4-yl)methanone]
2.11	100 to 500 nM	100 to 500 nM		C[C@H](Nc1nc(C(=O)NCCC2CCN(C(=O)OC(C)(C)C)CC2)c2sccc2n1)c1ccccn1 [Example Z342, tert-Butyl (S)-4-(2-(2-((1-(Pyridin-2-yl)ethyl)amino)thieno[3,2-d]pyrimidine-4-carboxamido)ethyl)piperidine-1-carboxylate]
	50 to 100 nM	100 to 500 nM	1.07	COC[C@H]1CCN(C(=O)c2nc(N[C@@H](C)c3ccccn3)nc3ccsc23)C1 [Example Z470, ((S)-3-(Methoxymethyl)pyrrolidin-1-yl)(2-(((S)-1-(pyridin-2-yl)ethyl)amino)thieno[3,2-d]pyrimidin-4-yl)methanone]
	50 to 100 nM	> 500 nM	7.31	Cc1cc2nc(N[C@@H](C)c3ccccn3)nc(C(=O)N3CC(CNC(=O)C(C)(C)C)C3)c2s1 [Example Z527, (S)—N-((1-(6-Methyl-2-((1-(pyridin-2-yl)ethyl)amino)thieno[3,2-d]pyrimidine-4-carbonyl)azetidin-3-yl)methyl)pivalamide]
	100 to 500 nM	> 500 nM	19.85	C[C@H](Nc1nc(C(=O)NCCc2ccc(C(=O)O)cc2)c2sccc2n1)c1cncc(F)c1 [Example Z452, (S)-4-(2-(2-((1-(5-Fluoropyridin-3-yl)ethyl)amino)thieno[3,2-d]pyrimidine-4-carboxamido)ethyl)benzoic acid]
2.57	100 to 500 nM	100 to 500 nM		O=C(c1nc(NCCc2ccc(O)cc2)nc2ccsc12)N1CCCC1 [Example Z359, (2-((4-Hydroxyphenethyl)amino)thieno[3,2-d]pyrimidin-4-yl)(pyrrolidin-1-yl)methanone]
	50 to 100 nM	10 to 50 nM	0.44	Cc1csc2c(C(=O)NCc3ccccc3)nc(N[C@@H](C)c3ccccn3)nc12 [Example Z443, (S)—N-Benzyl-7-methyl-2-((1-(pyridin-2-yl)ethyl)amino)thieno[3,2-d]pyrimidine-4-carboxamide]
